Experimental data taken from patent US20090131483A1, “2-PYRIDINE DERIVATIVES AS INHIBITORS OF NEUTROPHILE ELASTASE” (priority 2005, published 2009).

Biological target: T1, Human Neutrophil Elastase (HNE) (Homo sapiens, UniProt P08246)
T1 construct: Human Neutrophil Elastase (HNE) purified from serum; purchased Calbiochem 324681; host or cells: purified from serum (so in the source)
T1 sequence (P08246 30-267): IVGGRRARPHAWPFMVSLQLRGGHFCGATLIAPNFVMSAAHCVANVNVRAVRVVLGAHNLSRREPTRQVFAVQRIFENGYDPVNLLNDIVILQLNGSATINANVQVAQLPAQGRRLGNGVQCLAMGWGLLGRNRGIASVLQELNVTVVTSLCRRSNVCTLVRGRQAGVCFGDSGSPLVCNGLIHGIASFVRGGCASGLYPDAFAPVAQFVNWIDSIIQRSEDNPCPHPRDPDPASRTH
Test: Human Neutrophil Elastase Quenched-FRET Assay
Type: biochemical
Conditions: HNE purified from serum 1.7 nM, substrate MeOSuc-AAPV-AMC 100 μM, pH 7.5, 15 min pre-incubation, 30 min incubation at room temperature; read-out: Inhibition of Human Neutrophil Elastase IC50
Procedure: Human Neutrophil Elastase Quenched-FRET Assay
The assay uses Human Neutrophil Elastase (HNE) purified from serum (Calbiochem art. 324681; Ref. Baugh, R. J. et al., 1976, Biochemistry. 15, 836-841). H was stored in 50 mM sodium acetate (NaOAc), 200 mM sodium chloride (NaCl), pH 5.5 with added 30% glycerol at −20° C. The protease substrate used was Elastase Substrate V Fluorogenic, MeOSuc-AAPV-AMC (Calbiochem art. 324740; Ref. Castillo, M. J. et al., 1979, Anal. Biochem. 99, 53-64). The substrate was stored in dimethyl sulphoxide (DMSO) at −20° C. The assay additions were as follows: Test compounds and controls were added to black 96-well flat-bottom plates (Greiner 655076), 1 μL in 100% DMSO, followed by 30 μL HNE in assay buffer with 0.01% Triton (trade mark) X-100 detergent. The assay buffer constitution was: 100 mM Tris(hydroxymethyl)aminomethane (TRIS) (pH 7.5) and 500 mM NaCl. The enzyme and the compounds were incubated at room temperature for 15 minutes. Then 30 μl substrate in assay buffer was added. The assay was incubated for 30 minutes at room temperature. The concentrations of HNE enzyme and substrate during the incubation were 1.7 nM and 100 μM, respectively. The assay was then stopped by adding 60 μl stop solution (140 mM acetic acid, 200 mM sodium monochloroacetate, 60 mM sodium acetate, pH 4.3). Fluorescence was measured on a Wallac 1420 Victor 2 instrument at settings: Excitation 380 nm, Emission 460 nm. IC50 values were determined using Xlfit curve fitting using model 205.

SMILES | IC50
Cc1c(-c2ccnn2C)cc(C(=O)NCc2cc(CO)no2)c(=O)n1-c1cccc(C(F)(F)F)c1 [Example 4, N-{[3-(Hydroxymethyl)isoxazol-5-yl]methyl}-6-methyl-5-(1-methyl-1H-pyrazol-5-yl)-2-oxo-1-[3-(trifluoromethyl)phenyl]1,2-dihydropyridine-3-carboxamide] | 31 nM
CCc1cc(C(=O)NCc2cc(CO)no2)c(=O)n(-c2cccc(C(F)(F)F)c2)c1C [Example 6, 5-Ethyl-N-{[3-(hydroxymethyl)isoxazol-5-yl]methyl}-6-methyl-2-oxo-1-[3-(trifluoromethyl)phenyl]-1,2-dihydropyridine-3-carboxamide] | 45 nM
Cc1c(C2CC2)cc(C(=O)NCc2cc(CO)no2)c(=O)n1-c1cccc(C(F)(F)F)c1 [Example 7, 5-Cyclopropyl-N-{[3-(hydroxymethyl)isoxazol-5-yl]methyl}-6-methyl-2-oxo-1-[3-(trifluoromethyl)phenyl]-1,2-dihydropyridine-3-carboxamide] | 48 nM
Cc1c(C#CCO)cc(C(=O)NCc2ccc(S(C)(=O)=O)cc2)c(=O)n1-c1cccc(C(F)(F)F)c1 [Example 20, 5-(3-Hydroxyprop-1-yn-1-yl)-6-methyl-N-[4-(methylsulfonyl)benzyl]-2-oxo-1-[3-(trifluoromethyl)phenyl]-1,2-dihydropyridine-3-carboxamide] | 23 nM
Cc1c(CS(C)(=O)=O)cc(C(=O)NCc2ccc(S(=O)(=O)C3CC3)cc2)c(=O)n1-c1cccc(C(F)(F)F)c1 [Example 23, N-[4-(Cyclopropylsulfonyl)benzyl]-6-methyl-5-[(methylsulfonyl)methyl]-2-oxo-1-[3-(trifluoromethyl)phenyl]-1,2-dihydropyridine-3-carboxamide] | 61 nM
